# Source: the supplement of paper PMC10307832
# Compound: O=C(CCCCCCC(=O)Nc1ccccc1)NO [Vorinostat]
# Assay: relative viability (nuclei count vs DMSO), 5 days (fraction); higher = more cells survive
# In short: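 Acceptance criteria were a control CV below 25% and at least one doubling per plate. Lung cancer cell lines in 1536-well plates got five library-drug doses (not always all listed) √10 apart by pinning and were left 5 days with no medium change. Viability divides treated-well nuclei by vehicle-well nuclei and is the median across plates. Nuclei were counted by MetaXpress from 4× Hoechst images.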
Cell Line,relative viability (0.253 µM),relative viability (0.8 µM),relative viability (2.53 µM),relative viability (8 µM),"relative viability (1 µM, anchor plate)"
NCI-H1703,1.41,1.39,1.03,0.244,–
A549,1.05,0.848,0.337,0.0442,–
HCC-366,1.01,0.956,0.524,0.045,0.371
COR-L23,1.09,0.763,0.18,0.0822,0.426
PC-14,1.25,0.886,0.171,0.051,0.725
SW 1573,1.25,0.938,0.485,0.0973,0.84
LK-2,1.18,0.67,0.207,0.0969,0.309
RERF-LC-KJ,1.04,0.911,0.405,0.246,0.698
NCI-H2347,1.11,0.962,0.777,0.262,0.61
NCI-H1792,0.965,0.762,0.371,0.108,–
HOP-62,1.2,0.882,0.528,0.113,0.679
NCI-H1650,1.03,0.758,0.325,0.163,0.583
NCI-H1666,1.05,0.955,0.514,0.348,1.01
HCC-78,0.963,0.674,0.3,0.221,0.468
HCC-44,0.995,0.91,0.654,0.161,1.09
BEN,1.04,0.678,0.248,0.0942,0.597
HCC-15,1.16,0.909,0.655,0.145,0.885
NCI-H1395,0.91,0.919,0.631,0.387,0.834
NCI-H2009,1.14,0.878,0.482,0.153,0.711
UMC-11,1.1,0.617,0.201,0.103,0.403
HARA,1.03,0.593,0.434,0.121,0.561
LC-2-ad,0.989,0.722,0.228,0.155,0.691
NCI-H1437,1.04,0.831,0.421,0.184,0.861
NCI-H2126,1.03,0.875,0.655,0.257,0.769
NCI-H460,1.09,0.955,0.144,0.0458,0.715

Cell Line,relative viability (0.253 µM),relative viability (0.8 µM),relative viability (2.53 µM),relative viability (8 µM),"relative viability (1 µM, anchor plate)"
CAL-12T,1.13,1.09,0.537,0.137,0.807
SK-LU-1,1.19,0.924,0.668,0.19,0.781
NCI-H596,1.03,0.799,0.797,0.311,0.621
LCLC-97TM1,0.979,1.07,0.715,0.1,0.711
NCI-H1993,1.08,1,0.705,0.56,0.823
IA-LM,0.976,0.723,0.349,0.0685,0.963
A-427,1.15,0.972,0.517,0.176,0.862
NCI-H2170,1.08,0.969,0.539,0.158,0.847
NCI-H1915,1.12,0.878,0.514,0.123,0.524
NCI-H23,1.14,0.985,0.541,0.136,0.653
NCI-H727,1.11,0.813,0.514,0.31,1.19
EPLC-272H,0.976,0.767,0.373,0.157,0.533
LU99A,1.1,0.809,0.513,0.209,0.537
201T,1.07,0.848,0.855,0.324,0.946
LCLC-103H,1.08,0.961,0.812,0.272,0.781
HCC-827,1.15,1.12,0.934,0.416,0.882
SK-MES-1,1.11,1.02,0.555,0.203,1.08
H3255,1.02,1.13,0.573,0.286,0.791
NCI-H1975,1.08,0.817,0.449,0.14,0.707
NCI-H441,1.13,1.05,0.418,0.18,0.773
ABC-1,1.16,0.707,0.32,0.171,1.23
NCI-H661,1.11,0.974,0.548,0.351,0.8
NCI-H1563,1.07,0.856,0.629,0.513,–
NCI-H1944,0.927,0.707,0.341,0.21,0.57
EMC-BAC-2,0.92,0.752,0.363,0.176,0.493

Cell Line,relative viability (0.253 µM),relative viability (0.8 µM),relative viability (2.53 µM),relative viability (8 µM),"relative viability (1 µM, anchor plate)"
NCI-H2085,1.05,0.939,0.714,0.369,0.815
NCI-H1651,1.01,0.928,0.203,0.0791,0.579
NCI-H2087,1.03,0.634,0.246,0.0956,0.737
LXF-289,1.1,1.01,0.624,0.195,0.791
NCI-H3122,1.06,1.04,0.737,0.156,0.986
NCI-H1793,1.37,0.951,0.817,0.29,0.821
NCI-H1734,1.28,0.982,0.688,0.15,0.832
NCI-H838,1.15,1.03,0.565,0.191,0.763
SW 900,0.653,0.644,0.391,0.128,0.576
NCI-H2023,1.22,0.771,0.209,0.0744,0.709
NCI-H358,1.33,1.05,0.255,0.118,0.697
LOU-NH91,1.09,0.918,0.829,0.423,0.94
NCI-H650,0.939,0.792,0.481,0.158,0.457
EKVX,1.09,1.01,0.688,0.175,0.77
NCI-H2405,1.05,1.17,0.57,0.144,1.01
NCI-H1755,1.08,1.01,0.566,0.292,0.735
PC-3 [JPC-3],1.12,0.988,0.608,0.312,0.921
NCI-H647,1.16,0.731,0.199,0.0541,0.539
NCI-H520,1.35,0.955,0.503,0.175,0.745
NCI-H322M,1.17,0.87,0.6,0.385,0.915
COR-L 105,1.42,0.858,0.501,0.237,0.868
NCI-H1355,1.16,0.852,0.598,0.192,0.673
NCI-H2228,0.93,0.802,0.476,0.146,0.654
